In experiment [1] the target is human α2β3γ2 GABAARs (benzodiazepine site) (Homo sapiens (Human), UniProt P18507+P47869). Briefly: In vitro radioligand binding assay ([3H]Ro15-1788 displacement), α2-GABAAR Ki. The essentials:
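Membranes from dexamethasone-induced mouse L(tk−) cells stably expressing the human receptor were incubated 1 h at 4° C with 4 nM [3H]Ro15-1788 and graded compound; nonspecific binding with 1-3 μM TP003. Filter-bound radioactivity counted; Ki from IC50 by Cheng-Prusoff using the measured radioligand Kd.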

The target of experiment [2] is human α3β3γ2 GABAARs (benzodiazepine site) (Homo sapiens (Human), UniProt P18507+P34903). As to the kind of experiment: In vitro radioligand binding assay ([3H]Ro15-1788 displacement), α3-GABAAR Ki. The note with it: L(tk-) cell membranes, 4 nM [3H]Ro15-1788. How it is done: The affinity (Ki) of compounds for the benzodiazepine site of human recombinant GABAARs was measured by their ability to inhibit the binding of the selective benzodiazepine antagonist [^3H]Ro15-1788 ([^3H] flumazenil).
Mouse L(tk^−) cells stably expressing human α1β3γ2, α2β3γ2, α3β3γ2, α5β3γ2 GABAARs were generated by transfection of the individual subunits in the dexamethasone-inducible expression vector pMSGneo in mouse L(tk^−) cells (Hadingham et al., 1993, Mol. Pharmacol. 43:970-975 and 1993, Mol. Pharmacol. 44:1211-1218).
L(tk^−) cells stably expressing human α1β3γ2, α2β3γ2, α3β3γ2, α5β3γ2 GABAARs were maintained in DMEM F12 medium supplemented with 10% Foetal Bovine Serum, 1% Penicillin/Streptomycin and 1 mg/mL Geneticin G418 in an incubator at 37° C. with a humidified atmosphere with 5% CO2. Dexamethasone was added to the culture medium to induce GABAAR expression.
L(tk−) cells were harvested and membranes were prepared for each receptor combination in either TE buffer (10 mM Tris·CI/0.1 mM EDTA, pH 7.5) or phosphate buffer (K2PO4 10 mM, pH 7.0) (Hadingham et al. (1992) Proc. Natl. Acad. Sci. USA; 89 (14): 6378-82). Protein concentration, receptor expression and the Kd of [^3H]Ro15-1788 were determined before Ki value of the compounds were evaluated. For Kd evaluation, saturation binding curves were obtained by incubating membrane with various concentrations of [^3H]Ro15-1788 (82.5 Ci/mM), with nonspecific binding measured in the presence of 1-3 μM TP003.
For Ki evaluation, cell membranes were incubated with 4 nM [^3H]Ro15-1788 along with a range of concentrations of test compound. Nonspecific binding was determined using 1-3 μM TP003. All incubations were performed for 1 hour at 4° C. in assay buffer. The total assay volume was 0.5 mL, containing 40 μg/well α1β3γ2, 30 μg/well α2β3γ2, 40 μg/well α3β3γ2 and 30 μg/well for α5β3γ2 of membrane protein. Incubations were terminated by filtration and washing with ice cold Tris-HCl buffer (50 mM, pH=7.4) over Whatman GF/B filters and the radioactivity of the filters was measured using liquid scintillation counting.
The % inhibition of [^3H]Ro15-1788 binding was plotted as a function of compound concentration and the IC50 calculated. From the IC50, the affinity (Ki) was calculated using the method of Cheng and Prusoff using the Kd values obtained for [^3H]Ro15-1788.

Another experiment concerns human α2β3γ2 GABAARs. As to the kind of experiment: In vitro electrophysiological recording assay (automated patch-clamp), α2-GABAAR relative efficacy. The format is cell-based. The note with it: % efficacy normalised to diazepam; GABA EC10-20; concentration generally >= 100 times Ki. The essentials:
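Automated whole-cell patch clamp at 20-22° C on L(tk^−) cells (QPatch, −65 mV) or HEK293 cells (SyncroPatch, −80 mV) stably expressing the human receptor. Compound pre-applied ≥1 min, then co-applied with GABA EC10-20; % potentiation of leak-corrected peak current, normalised to diazepam, typically at ≥100× Ki.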
(In general: The patch-clamp technique gives a direct electrical read-out from membranes.)

The test system of a further experiment is human α3β3γ2 GABAARs. As to the kind of experiment: In vitro electrophysiological recording assay (automated patch-clamp), α3-GABAAR relative efficacy. The experiment is classed as cell-based. The note with it: % efficacy normalised to diazepam; GABA EC10-20; concentration generally >= 100 times Ki. The protocol:
The efficacy of modulators was evaluated using the automated patch-clamp platforms QPatch16 (Sophion, Copenhagen, Denmark) or SyncroPatch 384PE (Nanion, Germany).
For QPatch electrophysiology testing L(tk^−) cells stably expressing human α1β3γ2, α2β3γ2, α3β3γ2, α5β3γ2 GABAARs were used. HEK293 cells stably expressing human α1β3γ2L, α2β3γ2L, α3β3γ2L and α5β3γ2L GABAARs were used for the SyncroPatch 384PE experiments.
All experiments were carried out at room temperature (20-22° C.) using a standard whole cell procedure and physiological solutions. Gigaseals were formed upon execution of a combined suction/voltage protocol with subsequent increased suction leading to the whole-cell configuration.
The currents recorded were acquired at either 1 KHz or 2 KHz and filtered using a Bessel filter. Whole-cell currents were measured at a holding potential of-65 mV (QPatch) or −80 mV (SyncroPatch).
For QPatch experiments, the extracellular solution contained of: 145 mM NaCl, 4 mM KCl, 1 mM MgCl2, 2 mM CaCl2), 10 mM HEPES, 10 mM D-glucose (pH 7.4), and the intracellular solution consisted of: 96 mM KCl, 28 mM CsCl, 25 mM KOH, 4.3 mM CaCl2), 1.4 mM MgCl2, 10 mM EGTA, 10 mM HEPES, 3 mM MgATP (pH 7.2). The osmolarities of the extracellular and intracellular solutions were 305 and 295 mOsm respectively.
For SyncroPatch experiments, the extracellular recording solution contained: 140 mM NaCl, 4 mM KCl, 2 mM CaCl2), 1 mM MgCl2, 10 mM HEPES, 5 mM glucose (pH 7.4 with NaOH and osmolarity of c. 300-310 mOsm). The intracellular recording solution consisted of: 90 mM KCl, 50 mM KF, 1.5 mM MgCl2, 11.1 mM EGTA and 10 mM HEPES (pH 7.2 with KOH and osmolarity of c. 300 mOsm). 2 mM of NaATP was added to the intracellular solution on the day of testing.
The effects of modulators were evaluated in the presence of a submaximal GABA concentration, giving typically less than 30% activation of the response elicited by a saturating GABA concentration. To check and ensure baseline current stability before compound addition, two to five consecutive applications of GABA EC10-20 separated by wash steps were performed before compound addition. The test compound was applied 1 min at least prior to co-application with GABA EC10-20. Following a further wash step, a saturating concentration of GABA was applied at the end of each recording, allowing the accurate evaluation for each cell of the percentage baseline activation elicited by the submaximal GABA applied.
The compounds were first dissolved in DMSO as a 10 mM stock and then further diluted to the testing concentrations so that the final DMSO concentration in the extracellular recording solution was 0.1% (QPatch) or 0.2% (SyncroPatch).
The % efficacy of modulators was determined from the GABA elicited currents recorded in the presence and absence of the test compound, using the formula:
[((compound peak current−leak)−(GABA peak current-leak))/(GABA peak current−leak)]*100,
where ‘leak’ is the leak baseline current at the holding potential, ‘compound peak current’ is the current elicited by co-application of compound and GABA, and ‘GABA peak current’ is the current elicited by GABA alone at the last GABA application before compound addition. The results were presented as ‘relative efficacy’ for each compound generally at a concentration equal or higher than 100 times their determined Ki. The relative efficacy of a compound was calculated by normalising its % efficacy to the corresponding % efficacy of diazepam that was separately determined.

pKi: −log10 of the molar value.

Sequence of human α2β3γ2 GABAARs (benzodiazepine site) (P47869 29-451): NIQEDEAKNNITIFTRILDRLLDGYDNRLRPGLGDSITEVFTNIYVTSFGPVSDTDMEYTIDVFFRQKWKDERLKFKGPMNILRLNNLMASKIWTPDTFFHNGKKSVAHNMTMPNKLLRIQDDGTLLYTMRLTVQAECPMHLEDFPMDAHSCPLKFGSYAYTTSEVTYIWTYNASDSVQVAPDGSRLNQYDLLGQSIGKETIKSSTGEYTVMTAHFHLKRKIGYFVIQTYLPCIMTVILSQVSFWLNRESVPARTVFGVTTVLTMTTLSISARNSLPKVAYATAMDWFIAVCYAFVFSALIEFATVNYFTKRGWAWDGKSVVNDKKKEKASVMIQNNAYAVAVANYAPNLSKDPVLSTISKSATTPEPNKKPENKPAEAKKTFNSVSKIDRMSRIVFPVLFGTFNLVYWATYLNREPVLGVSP
Sequence of human α2β3γ2 GABAARs (benzodiazepine site) (P28472 26-473 partner): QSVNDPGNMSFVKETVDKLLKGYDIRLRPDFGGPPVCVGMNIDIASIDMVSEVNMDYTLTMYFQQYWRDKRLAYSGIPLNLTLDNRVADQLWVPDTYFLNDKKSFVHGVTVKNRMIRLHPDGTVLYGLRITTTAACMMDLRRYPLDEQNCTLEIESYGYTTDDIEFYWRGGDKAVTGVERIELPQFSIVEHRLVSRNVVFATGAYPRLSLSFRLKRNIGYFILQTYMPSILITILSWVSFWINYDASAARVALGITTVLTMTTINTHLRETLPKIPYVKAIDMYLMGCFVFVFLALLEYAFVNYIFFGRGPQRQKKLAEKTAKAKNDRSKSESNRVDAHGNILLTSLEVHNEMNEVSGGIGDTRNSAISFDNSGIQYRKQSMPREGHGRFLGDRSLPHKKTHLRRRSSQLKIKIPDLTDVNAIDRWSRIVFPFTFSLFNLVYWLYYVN
Sequence of human α2β3γ2 GABAARs (benzodiazepine site) (P18507 40-475): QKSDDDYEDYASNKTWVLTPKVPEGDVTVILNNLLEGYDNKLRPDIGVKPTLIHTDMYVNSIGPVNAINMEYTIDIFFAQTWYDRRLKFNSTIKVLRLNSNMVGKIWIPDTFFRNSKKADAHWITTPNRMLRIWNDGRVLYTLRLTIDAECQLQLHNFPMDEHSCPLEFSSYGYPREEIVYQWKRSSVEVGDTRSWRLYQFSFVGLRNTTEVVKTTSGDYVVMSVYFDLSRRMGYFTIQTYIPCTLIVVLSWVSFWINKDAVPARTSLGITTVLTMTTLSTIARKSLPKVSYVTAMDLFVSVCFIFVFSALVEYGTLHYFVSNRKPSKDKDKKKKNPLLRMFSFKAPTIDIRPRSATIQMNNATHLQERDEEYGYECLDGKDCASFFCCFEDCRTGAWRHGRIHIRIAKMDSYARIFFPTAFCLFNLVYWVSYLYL

As for `CCCNC(=O)c1c(N)c2cccc(-c3nc(C)ccc3F)c2[nH]c1=O` [Example 7, 4-Amino-8-(3-fluoro-6-methyl-2-pyridyl)-2-oxo-N-propyl-1H-quinoline-3-carboxamide], the pKi (commonly −log10 of the Ki, conventionally taken in molar units) in experiment [1] is 9.23; in experiment [2] it was 8.93. The “α2-GABAAR Relative Efficacy (vs. Diazepam)” value (“α2-GABAAR Relative Efficacy” for short) in the experiment with human α2β3γ2 GABAARs is 0.16. Further, the “α3-GABAAR Relative Efficacy (vs. Diazepam)” value (from here on “α3-GABAAR Relative Efficacy”) with human α3β3γ2 GABAARs turned out to be 0.43.
Taken in the same sequence, the figures for `CCCNC(=O)c1c(N)c2cccc(-c3nc(CO)ccc3F)c2[nH]c1=O` [Example 11, 4-Amino-8-[3-fluoro-6-(hydroxymethyl)-2-pyridyl]-2-oxo-N-propyl-1H-quinoline-3-carboxamide] were 8.67, 8.36, 0.32 and 0.24.
As to `CCCNC(=O)c1c(N)c2cccc(-c3cncc(CO)c3)c2[nH]c1=O` [Example 25, 4-Amino-8-[5-(hydroxymethyl)-3-pyridyl]-2-oxo-N-propyl-1H-quinoline-3-carboxamide], the pKi in experiment [1] is 8.47. In the experiment on human α2β3γ2 GABAARs, the “α2-GABAAR Relative Efficacy” value amounted to 0.15. Also, the “α3-GABAAR Relative Efficacy” value in the experiment with human α3β3γ2 GABAARs amounted to 0.10.
Turning to `CCCNC(=O)c1c(N)c2cccc(-c3ccnc(CO)c3)c2[nH]c1=O` [Example 32, 4-Amino-8-[2-(hydroxymethyl)-4-pyridyl]-2-oxo-N-propyl-1H-quinoline-3-carboxamide], the pKi in experiment [1] is 8.51; in experiment [2], 8.16. Also, the “α2-GABAAR Relative Efficacy” value with human α2β3γ2 GABAARs is recorded as 0.24. Moreover, in the experiment with human α3β3γ2 GABAARs, the “α3-GABAAR Relative Efficacy” value worked out at 0.29.
Turning to `CCCNC(=O)c1c(N)c2cccc(-c3cc(OC)ncc3F)c2[nH]c1=O` [Example 34, 4-Amino-8-(5-fluoro-2-methoxy-4-pyridyl)-2-oxo-N-propyl-1H-quinoline-3-carboxamide], the figures for the negative-log Ki (pKi) in experiment [1] and in experiment [2] were 9.17 and 8.80, respectively. In the experiment on human α2β3γ2 GABAARs, the “α2-GABAAR Relative Efficacy” value worked out at 0.49. Also, the “α3-GABAAR Relative Efficacy” value in the experiment on human α3β3γ2 GABAARs is reported as 0.47.
For `CCCNC(=O)c1c(N)c2cccc(-c3nc(OC)ncc3F)c2[nH]c1=O` [Example 42, 4-Amino-8-(5-fluoro-2-methoxy-pyrimidin-4-yl)-2-oxo-N-propyl-1H-quinoline-3-carboxamide], in that order: 9.25, 9.19, 0.25 and 0.21.
As to `CCCNC(=O)c1c(N)c2cccc(-c3nc(C)[nH]c3C)c2[nH]c1=O` [Example 52, 4-Amino-8-(2,5-dimethyl-1H-imidazol-4-yl)-2-oxo-N-propyl-1H-quinoline-3-carboxamide], in experiment [1], the pKi is 8.18. For the same compound, the “α2-GABAAR Relative Efficacy” value with human α2β3γ2 GABAARs was found to be 0.53. Moreover, in the experiment with human α3β3γ2 GABAARs, the “α3-GABAAR Relative Efficacy” value was 0.41.
Consider `[2H]C([2H])([2H])C([2H])([2H])C([2H])([2H])NC(=O)c1c(N)c2cccc(-c3cnccc3OC)c2[nH]c1=O` [Example 62, 4-Amino-8-(4-methoxypyridin-3-yl)-2-oxo-N-(propyl-d7)-1,2-dihydroquinoline-3-carboxamide], for which the pKi is 8.16 in experiment [1] and 8.27 in experiment [2]. The “α2-GABAAR Relative Efficacy” value in the experiment with human α2β3γ2 GABAARs turned out to be 0.28. Further, in the experiment on human α3β3γ2 GABAARs, the “α3-GABAAR Relative Efficacy” value was 0.44.
For `COc1ccncc1-c1cccc2c(N)c(C(=O)NCCC(F)(F)F)c(=O)[nH]c12` [Example 69, 4-Amino-8-(4-methoxypyridin-3-yl)-2-oxo-N-(3,3,3-trifluoropropyl)-1,2-dihydroquinoline-3-carboxamide], in that order: 7.58, 7.22, 0.6 and 0.59.
For the compound `CCCNC(=O)c1c(N)c2cccc(-c3cc(OCc4ccccn4)ccc3F)c2[nH]c1=O` [Example 85, 4-Amino-8-[2-fluoro-5-(2-pyridylmethoxy)phenyl]-2-oxo-N-propyl-1H-quinoline-3-carboxamide], the pKi is 9.52 in experiment [1] and 9.15 in experiment [2]. Moreover, the “α2-GABAAR Relative Efficacy” value in the experiment on human α2β3γ2 GABAARs is 0.32. The “α3-GABAAR Relative Efficacy” value in the experiment with human α3β3γ2 GABAARs worked out at 0.42.
As for `CCCNC(=O)c1c(N)c2cccc(-c3cc(OCc4cccc(C#N)n4)ccc3F)c2[nH]c1=O` [Example 91, 4-Amino-8-(5-((6-cyanopyridin-2-yl)methoxy)-2-fluorophenyl)-2-oxo-N-propyl-1,2-dihydroquinoline-3-carboxamide], the pKi in experiment [1] was 9.34; in experiment [2], 8.89. Moreover, the “α2-GABAAR Relative Efficacy” value in the experiment on human α2β3γ2 GABAARs is on record as 0.18. Besides, in the experiment with human α3β3γ2 GABAARs, the “α3-GABAAR Relative Efficacy” value turned out to be 0.29.
For `CCCNC(=O)c1c(N)c2cccc(-c3cc(OCc4ccc(F)cn4)ccc3F)c2[nH]c1=O` [Example 92, 4-Amino-8-[2-fluoro-5-[(5-fluoro-2-pyridyl)methoxy]phenyl]-2-oxo-N-propyl-1H-quinoline-3-carboxamide], in that order: 9.32, 9.09, 0.21 and 0.26.

The values above are taken from patent US20250197368A1 (priority 2020, published 2025).
